Test results: patent US20040200144A1, “Plant growth regulator and a method of producing the regulator” (Dainichiseika Color & Chemicals Mfg. Co., Ltd., priority 2003, published 2004)

Experiments:
Type in all cases: in vivo
eggplant young plants = experiment: Dwarfing test of eggplant young plant; settings: for Plant Height / Dwarfing Rate: 5 ml per cell on 7th day, measured 25th day; for Dwarfing Rate: vs comparative group
Method: (§1) After seeding, the pot was placed in the same greenhouse as described above to sprout. Subsequently, on the 5th day, the cinnamic aqueous acid solutions were added to the nursery soil in the joint pots. One of the joint pots (24 cells) was prepared as a 0.05% cinnamic acid aqueous solution addition group, and 5 ml of the 0.05% cinnamic acid aqueous solution was added to the nursery soil of each cell. Another one of the join pots was prepared as a 0.2% cinnamic acid aqueous solution addition group, and 5 ml of the 0.2% cinnamic acid aqueous solution was added to the nursery soil of each cell. […] Subsequently, the cultivation of carrot young plants in each group was continued under general conditions. On the 27th day, the heights of young plants in each group were measured, the dwarfing rate (%) was calculated, and the dwarfing effect of cinnamic acid aqueous solution on carrot young plants was examined. From the results in Table 5, it became evident that the 0.05% and 0.2% cinnamic acid aqueous solutions are effective in dwarfing carrot young plants. In the same way as in Example 5 except that seeds of cauliflower were sowed, the cinnamic acid solutions were added to the nursery soil in the joint pot on the 4th day, and that heights of young plants in each group were measured on the 20th day, the dwarfing effect of cinnamic acid aqueous solution on cauliflower young plants was examined. From the results in Table 12, it became evident that the cinnamic acid aqueous solutions are effective in dwarfing cauliflower young plants. In the same way as in Example 12 except that seeds of tomato were sowed, and that the cinnamic acid solutions were added to the nursery soil of the joint pot on the 7th day, the dwarfing effect of cinnamic acid aqueous solution on tomato young plants was examined. From the results in Table 17, it became evident that the cinnamic acid aqueous solutions are effective in dwarfing tomato young plants. In the same way as in Example 17 except that seeds of eggplant were sowed, and that plant heights were measured on the 25th day, the dwarfing effect of cinnamic acid aqueous solution on eggplant young plants was examined. From the results in Table 19, it became evident that the cinnamic acid aqueous solutions are effective in dwarfing eggplant young plants.

watermelon young plants = experiment: Dwarfing test of watermelon young plant; settings: for Plant Height / Dwarfing Rate: 5 ml per cell on 7th day, measured 27th day; for Dwarfing Rate: vs comparative group
Method: as §1, with “watermelon” for “eggplant”, “27th” for “25th”, “21,” for “19,”

hydrangea young plants = experiment: Dwarfing test of hydrangea young plant; settings: for Plant Height / Dwarfing Rate: 100 ml per pot on 42nd day, measured 72nd day; for Dwarfing Rate: vs comparative group
Method: Dwarfing rate (%)=[(the plant height of the comparative group)−(the plant height of an addition group)/the plant height of the comparative group]×100 […] A cutting of a fresh shoot of hydrangea was planted in the soil of each pot (diameter of 10.5 cm and depth of 8.5 cm) and cultivated continuously after the cuttage. On the 42nd day, top pinching was performed, a young plant was adjusted to have a height of 8 cm and four leaves and planted and fixed in a pot (diameter of 14.5 cm and depth of 14.5 cm) At this point, 100 ml of 0.2% or 0.4% cinnamic acid aqueous solution prepared as described above was added to the nursery soil of 8 pots, and thus 0.2% cinnamic acid aqueous solution addition group and 0.4% cinnamic acid aqueous solution addition group were prepared. Further, 8 pots were prepared as a comparative group on which general watering was performed. The cultivation of young plants of each group was continued. On the 72nd day, heights of young plants in each group were measured, the dwarfing rate (%) was calculated, and the dwarfing effect of cinnamic acid aqueous solution on hydrangea was examined. From the results in Table 26, it became evident that the cinnamic acid solutions are effective in dwarfing hydrangea young plants.

## O=C(O)C=Cc1ccccc1 [cinnamic acid]
Eggplant young plants; 0.05% aqueous solution
  Plant Height: 2.9 cm
  Dwarfing Rate: 12.1%
Eggplant young plants; 0.2% aqueous solution
  Plant Height: 2.3 cm
  Dwarfing Rate: 30.3%
Eggplant young plants; eggplant young plants, 0.05% and 0.2% aqueous solutions
  dwarfing effect: effective
Watermelon young plants; 0.05% aqueous solution
  Plant Height: 9.3 cm
  Dwarfing Rate: 15.5%
Watermelon young plants; 0.2% aqueous solution
  Plant Height: 7.9 cm
  Dwarfing Rate: 28.2%
Watermelon young plants; watermelon young plants, 0.05% and 0.2% aqueous solutions
  dwarfing effect: effective
Hydrangea young plants; 0.2% aqueous solution
  Plant Height: 15.1 cm
  Dwarfing Rate: 2.6%
Hydrangea young plants; 0.4% aqueous solution
  Plant Height: 11.7 cm
  Dwarfing Rate: 24.5%
Hydrangea young plants; hydrangea young plants, 0.2% and 0.4% aqueous solutions
  dwarfing effect: effective
